Experiment in all cases: PK/LDH-coupled NADH oxidation at […] nm
What all share (type): biochemical

Assay [1] has as its target T1, NAGK (N-acetyl glutamate kinase, Arg6) (Saccharomyces cerevisiae, UniProt Q01217, C119Y).
T1 construct: gene ARG5

Assay [2] deals with T2, NAGK (N-acetyl glutamate kinase, Arg6) (Saccharomyces cerevisiae, UniProt Q01217, T340R).
T2 construct: gene ARG5

Assay [3] deals with T3, NAGK (N-acetyl glutamate kinase, Arg6) (Saccharomyces cerevisiae, UniProt Q01217, T340S).
T3 construct: gene ARG5

In assay [4] the target is T4, NAGK (N-acetyl glutamate kinase, Arg6) (Saccharomyces cerevisiae, UniProt Q01217, V267A).
T4 construct: gene ARG5

Assay [5] concerns the target T5, NAGK (N-acetyl glutamate kinase, Arg6) (Saccharomyces cerevisiae, UniProt Q01217, T340A).
T5 construct: gene ARG5

Assay [6] deals with T6, NAGK (N-acetyl glutamate kinase, Arg6) (Saccharomyces cerevisiae, UniProt Q01217, T340L).
T6 construct: gene ARG5

The target in assay [7] is T7, NAGK (N-acetyl glutamate kinase, Arg6) (Saccharomyces cerevisiae, UniProt Q01217).
T7 construct: gene ARG5

Assay [8] concerns the target T8, NAGK (N-acetyl glutamate kinase, Arg6) (Saccharomyces cerevisiae, UniProt Q01217, T340N).
T8 construct: gene ARG5

Assay [9] addresses T9, NAGK (N-acetyl glutamate kinase, Arg6) (Saccharomyces cerevisiae, UniProt Q01217, T340E).
T9 construct: gene ARG5

For one compound, IC50 results are on record in PMC9241915, “Functional Analysis of Feedback Inhibition-Insensitive Variants of N-Acetyl Glutamate Kinase Found in Sake Yeast Mutants with Ornithine Overproduction” (Microbiology Spectrum, 2022).

Structures are written as SMILES.

T6 sequence (Q01217 58-513 T340L): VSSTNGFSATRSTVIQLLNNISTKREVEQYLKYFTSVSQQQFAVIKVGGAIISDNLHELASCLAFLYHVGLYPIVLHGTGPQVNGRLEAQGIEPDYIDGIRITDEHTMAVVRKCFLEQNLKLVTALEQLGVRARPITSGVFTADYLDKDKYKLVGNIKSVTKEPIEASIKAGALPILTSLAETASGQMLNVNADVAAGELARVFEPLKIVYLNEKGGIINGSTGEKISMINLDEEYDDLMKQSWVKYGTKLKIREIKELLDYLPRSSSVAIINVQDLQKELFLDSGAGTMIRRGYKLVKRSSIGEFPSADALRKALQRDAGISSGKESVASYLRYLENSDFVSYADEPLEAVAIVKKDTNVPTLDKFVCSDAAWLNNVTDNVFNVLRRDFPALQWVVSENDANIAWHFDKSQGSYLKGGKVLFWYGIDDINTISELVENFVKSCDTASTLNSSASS
T2 sequence (Q01217 58-513 T340R): as the sequence (Q01217 58-513 T340L) above, with L283R counted along it
T8 sequence (Q01217 58-513 T340N): as the sequence (Q01217 58-513 T340L) above, with L283N counted along it
T7 sequence (Q01217 58-513): as the sequence (Q01217 58-513 T340L) above, with L283T counted along it
T4 sequence (Q01217 58-513 V267A): as the sequence (Q01217 58-513 T340L) above, with V210A, L283T counted along it
T1 sequence (Q01217 58-513 C119Y): as the sequence (Q01217 58-513 T340L) above, with C62Y, L283T counted along it
T5 sequence (Q01217 58-513 T340A): as the sequence (Q01217 58-513 T340L) above, with L283A counted along it
T9 sequence (Q01217 58-513 T340E): as the sequence (Q01217 58-513 T340L) above, with L283E counted along it
T3 sequence (Q01217 58-513 T340S): as the sequence (Q01217 58-513 T340L) above, with L283S counted along it

By IC50 is commonly meant the concentration that inhibits the measured activity by half. A low value points to greater potency. `N=C(N)NCCC[C@H](N)C(=O)O` [arginine]: the IC50 in assay [1] was determined as 780 ± 50 µM; in assay [2], 2.48 ± 0.67 mM; in [3], 170 ± 120 µM; in assay [4] it was 2.83 ± 0.16 mM; in assay [5], 2.25 ± 0.2 mM; in [6] it was 10.5 ± 0.8 mM. Moreover, the results for the IC50 in assay [7], in assay [8] and in assay [9] were 90 µM, 24 ± 5.36 mM and 6.87 ± 1 mM, respectively.
